Laboratory results reported in article PMC3292407 (The Journal of Neuroscience, 2012).
Like-named read-outs stand apart in the source and are kept apart here.

Experiments:
[1] = Plasma EtOH concentrations; format: in vivo, rat
rats [2] = assay: Elevated-plus maze; format: in vivo, rat
rats [3] = assay: Pentylenetetrazol; format: in vivo, rat; settings: PTZ 42 mg/kg
rats [4] = format: in vivo, rat
[5] = Plasma [EtOH] assay of two-bottle choice; format: in vivo, rat; settings: E+D/water-group vs E/water-group, end of the 6th week
GABAARs [6] = format: cell-based, rat; settings: for Itonic (pA) / mIPSC amplitude (pA) / mIPSC area (fC) / Decay time / Frequency (HZ) / Rise time: DGCs of naive rats; for Decay time / Frequency (HZ) / Rise time: mIPSCs
GABAARs [7] = format: cell-based, rat
GABAAR α4 subunit [8] = assay: Western blot of total GABAAR α4 subunit in hippocampus 48 hr after withdrawal; format: in vivo, rat
GABAAR α4 subunit [9] = format: cell-based, rat; settings: cultured neurons 24 hrs after EtOH 60 mM + DHM 0.1 μM (E+D)
GABAARs [10] = format: in vivo, rat; settings: for Decay time / Frequency (HZ) / Rise time: baseline mIPSCs; for Itonic (pA) / mIPSC amplitude (pA) / mIPSC area (fC): baseline
rats [11] = assay: Loss of Righting Reflex
[12] = 48 hr after DHM 1 mg/kg i.p. alone (D/W)
[13] = 48 hr withdrawal after EtOH 3 g/kg + DHM 1 mg/kg i.p. (E+D/W)
[14] = DHM 3 μM in presence of EtOH 60 mM
[15] = DHM 1 μM, cultured hippocampal neurons DIV13-14
[16] = D/W: 48 hr after DHM 1 mg/kg gavage
[17] = E+D/W: 48 hr after EtOH 5 g/kg + DHM 1 mg/kg gavage
[18] = DHM 0.3, 0.5, 1, 10 mg/kg co-injected i.p. with EtOH 3 g/kg

O=C1c2c(O)cc(O)cc2O[C@H](c2cc(O)c(O)c(O)c2)[C@H]1O [DHM, (2R,3R)-3,5,7-trihydroxy-2-(3,4,5-trihydroxyphenyl)-2,3-dihydrochromen-4-one]
Effect on plasma [EtOH] ([1]; DHM 10 mg/kg with EtOH 3 g/kg, significant at 30 min, not at 60 min): slightly decreased [EtOH]
Rise time of plasma [EtOH] ([1]; DHM 1, 10 mg/kg with EtOH 3 g/kg): the rise time of plasma [EtOH] was slowed at early time
Time in open and closed arms (EPM) (rats [2]; [12]): did not affect the time rats spent in either arm
Time in open and closed arms (EPM) (rats [2]; 48 hr withdrawal after EtOH 3 g/kg + DHM 1 mg/kg i.p. (E+D/W), vs V/W-group): spent similar times
PTZ-induced seizure duration (rats [3]; [12]): 0.6 ± 0.4 min
PTZ-induced seizure duration (rats [3]; [13]): 1.7 ± 0.8 min
Preference to bottle containing E+D (rats [4]; E+D/water-group, 3rd vs 7th week): did not change this preference
EtOH intake (rats [4]; EtOH+DHM 0.05 mg/ml/water (E+D/water-group), beginning of the 4th week): 2.6 ± 0.5 g/kg/day
Total fluid consumption (rats [4]; between the 4 groups (E/water, E+D/water, D/water, water/water)): no significant differences in total fluid consumption
Body weight (rats [4]; between the 4 groups at the end of the experiments): no significant difference in body weight
Plasma [EtOH] [5]: significantly lower
Itonic (pA) (GABAARs [6]; DHM 0.1 μM): 27.6 ± 1.4 pA
mIPSC amplitude (pA) (GABAARs [6]; DHM 0.1 μM): 30.9 ± 2.9 pA
mIPSC area (fC) (GABAARs [6]; DHM 0.1 μM): 637.1 ± 19.8 fC
Decay time (GABAARs [6]; DHM 0.1 μM): 7.5 ± 0.5 ms
Frequency (HZ) (GABAARs [6]; DHM 0.1 μM): 14.0 ± 0.6 HZ
Rise time (GABAARs [6]; DHM 0.1 μM): 2.0 ± 0.2 ms
Itonic (pA) (GABAARs [6]; DHM 1 μM): 44.0 ± 4.1 pA
mIPSC amplitude (pA) (GABAARs [6]; DHM 1 μM): 32.7 ± 2.6 pA
mIPSC area (fC) (GABAARs [6]; DHM 1 μM): 715.7 ± 26.2 fC
Decay time (GABAARs [6]; DHM 1 μM): 8.6 ± 0.5 ms
Frequency (HZ) (GABAARs [6]; DHM 1 μM): 15.0 ± 0.6 HZ
Rise time (GABAARs [6]; DHM 1 μM): 2.1 ± 0.2 ms
EtOH-potentiated Itonic (GABAARs [6]; [14]): 21.0 ± 0.9 pA
EtOH-potentiated mIPSCs (area) (GABAARs [6]; [14]): 0.70 ± 0.02 nC
Itonic (pA) (GABAARs [6]; DHM 10 μM): 53.8 ± 2.9 pA
mIPSC amplitude (pA) (GABAARs [6]; DHM 10 μM): 36.1 ± 2.4 pA
mIPSC area (fC) (GABAARs [6]; DHM 10 μM): 965.7 ± 30.9 fC
Decay time (GABAARs [6]; DHM 10 μM): 9.6 ± 0.8 ms
Frequency (HZ) (GABAARs [6]; DHM 10 μM): 15.9 ± 1.0 HZ
Rise time (GABAARs [6]; DHM 10 μM): 2.4 ± 0.3 ms
Itonic (pA) (GABAARs [6]; DHM 30 μM): 54.0 ± 3.4 pA
mIPSC amplitude (pA) (GABAARs [6]; DHM 30 μM): 35.8 ± 3.0 pA
mIPSC area (fC) (GABAARs [6]; DHM 30 μM): 956.7 ± 22.6 fC
Decay time (GABAARs [6]; DHM 30 μM): 10.1 ± 0.8 ms
Frequency (HZ) (GABAARs [6]; DHM 30 μM): 16.1 ± 1.7 HZ
Rise time (GABAARs [6]; DHM 30 μM): 2.4 ± 0.2 ms
Effect on EtOH (60 mM) potentiation of Itonic and mIPSCs (GABAARs [6]; DHM 0.3 and 1.0 μM): concentration-dependently antagonized
Itonic potentiation (GABAARs [7]; [15]): 194.9 ± 13.6 % of baseline
mIPSC area potentiation (GABAARs [7]; [15]): 181.8 ± 9.2 % of baseline
Effect on GABA concentration-response curve of GABAAR-currents (GABAARs [7]; DHM 0.3 and 1 μM co-applied with GABA, TTX present, DIV14): produced a left shift of the GABA concentration-response curve
Effect on total α4 subunit level (GABAAR α4 subunit [8]; hippocampus 48 hr after DHM 1 mg/kg i.p. alone (D/W)): had no effect on α4 subunit level
Total α4 protein level (GABAAR α4 subunit [8]; hippocampus 48 hr after EtOH 3 g/kg + DHM 1 mg/kg i.p. (E+D/W)): 93.0 ± 21.0 % of control
Effect on EtOH-induced increase in surface GABAAR α4 (GABAAR α4 subunit [9]): prevented this increase
Decay time (GABAARs [10]; [16]): 7.9 ± 1.2 ms
Frequency (HZ) (GABAARs [10]; [16]): 13.2 ± 1.3 HZ
Rise time (GABAARs [10]; [16]): 2.2 ± 0.3 ms
Decay time (GABAARs [10]; [17]): 7.1 ± 0.6 ms
Frequency (HZ) (GABAARs [10]; [17]): 12.4 ± 0.5 HZ
Rise time (GABAARs [10]; [17]): 1.8 ± 0.3 ms
Itonic (pA) (GABAARs [10]; [16]): 24.3 ± 2.9 pA
mIPSC amplitude (pA) (GABAARs [10]; [16]): 28.5 ± 3.0 pA
mIPSC area (fC) (GABAARs [10]; [16]): 621.5 ± 68.5 fC
Itonic (pA) (GABAARs [10]; [17]): 30.0 ± 2.8 pA
mIPSC amplitude (pA) (GABAARs [10]; [17]): 26.2 ± 2.1 pA
mIPSC area (fC) (GABAARs [10]; [17]): 666.8 ± 34.1 fC
mIPSC modulation by acute EtOH (GABAARs [10]; bath EtOH 60 mM, DGCs of E+D/W-group rats): mIPSC modulation was unchanged
Acute EtOH-induced LORR (tolerance) (rats [11]; 48 hr withdrawal after DHM 1 mg/kg i.p. alone (D/W)): 65.6 ± 8.4 min
Acute EtOH-induced LORR (tolerance) (rats [11]; [13]): 61.0 ± 3.8 min
LORR duration (rats [11]; DHM 1 mg/kg 30 min prior to EtOH injection (D1+E)): 8.2 ± 4.1 min
LORR duration (rats [11]; DHM 1 mg/kg co-injected i.p. with EtOH 4 g/kg (E4+D1)): 28.2 ± 4.0 min
LORR induction (rats [11]; DHM 1 mg/kg i.p. alone (D1)): did not induce LORR
LORR duration (rats [11]; DHM 3 mg/kg co-injected with EtOH 3 g/kg (E3+D3)): 2.7 ± 1.7 min
LORR duration (rats [11]; DHM 100 mg/kg i.p. alone (D100)): 2.9 ± 1.3 min
Effect on duration of EtOH-induced LORR (rats [11]; [18]): dose-dependently reduced LORR
Effect on onset of EtOH-induced LORR (rats [11]; [18]): dose-dependently increased LORR onset
LORR duration (rats [11]; DHM 300 mg/kg i.p. alone (D300)): 9.8 ± 4.3 min
Remaining LORR after the 30 min time point (rats [11]; DHM injected 30 min after EtOH): 19 ± 1.0 min
